Measurements as given in EP4796551A1, “ZWITTERIONIC PHOSPHOLIPID COMPOUND AND LIPID NANOPARTICLE CONTAINING THE SAME” (National University Corporation Hokkaido University, priority 2023, dated 2025).
Values belong to the compound of their own block, whether it stands above or below them.

Columns and labels:
[1] = Ribogreen assay, mRNA encapsulation efficiency of LNP; assay type: physicochemical; settings: mRNA-LNP formulation phospholipid:CL4F6:Chol:PEG-DMG 10:50:40:1.0, Fluc mRNA
Protocol: (§1) Ethanol solutions containing each phospholipid, CL4F6, Chol, and PEG2000-dimirystoylglycerol (PEG-DMG) at the molar ratio of 10:50:40:1.0 were prepared at the total lipid concentration of 16 mM. For fluorescent labeling of LNPs, 0.5 mol% of DiI or DiR was added to the above solutions. The firefly luciferase (Fluc)-encoding mRNA (TriLink) was dissolved in a 25 mM acetate buffer (pH 4.0). LNPs were prepared by mixing the lipids in ethanol and RNA in an aqueous solution using an iLiNP device at a total flow rate (TFR) of 0.5 mL/min and a flow rate ratio (FRR) (RNA flow rate/lipid flow rate) of 3. The nitrogen to phosphate (N/P) ratio was adjusted to 6. Syringe pumps (Harvard apparatus) were used to control the flow rate of the solutions. The resulting LNP solutions were then dialyzed for 2 hours or more at 4 °C against phosphate buffered saline without Ca^2+ and Mg^2+ (PBS(-)) using Spectra/Por 4 dialysis membranes (molecular weight cut-off 12,000-14,000 Da, Spectrum Laboratories). The LNP solutions were concentrated by ultrafiltration using an Amicon Ultra-15 unit (MWCO 100 kDa, Millipore) as needed.
(§2) The ζ-average particle size, polydispersity index (PDI), and ζ-potential of the LNPs were measured by means of a Zetasizer Nano ZS ZEN3600 instrument (Malvern Instruments). The encapsulation efficiency and total concentration of mRNA were measured by a Ribogreen assay according to a conventional method.

[2] = Particle size, PDI and ζ-potential of mRNA-LNP (Zetasizer Nano ZS); assay type: physicochemical; settings: mRNA-LNP formulation phospholipid:CL4F6:Chol:PEG-DMG 10:50:40:1.0, Fluc mRNA
Protocol: as §1, §2

Compound: CCCCCCCC/C=C\CCCCCCCC(=O)OC[C@H](COP(=O)(O)OCCNCCC(=O)OCCCC)OC(=O)CCCCCCC/C=C\CCCCCCCC [DOPE-C4, (R)-2,3-bis(oleoyloxy)propyl (2-((3-butoxy-3-oxopropyl)ammonio)ethyl) phosphate]
- mRNA encapsulation rate % ([1]; Table 1): 91.2%
- Number average particle size (nm) ([2]; Table 1): 58 nm
- PDI ([2]; Table 1): 0.17
- ζ-potential (mV) ([2]; Table 1): -5.0 mV
- ζ-average particle size (nm) ([2]; Table 1, N/P 6): 87 nm

Compound: CCCCCCCC/C=C\CCCCCCCC(=O)OC[C@H](COP(=O)(O)OCCNCCC(=O)OCCCCCC)OC(=O)CCCCCCC/C=C\CCCCCCCC [DOPE-C6, (R)-2,3-bis(oleoyloxy)propyl (2-((3-(hexyloxy)-3-oxopropyl)ammonio)ethyl) phosphate]
- mRNA encapsulation rate % ([1]; Table 1): 91.5%
- Number average particle size (nm) ([2]; Table 1): 59 nm
- PDI ([2]; Table 1): 0.15
- ζ-potential (mV) ([2]; Table 1): -1.4 mV
- ζ-average particle size (nm) ([2]; Table 1, N/P 6): 86 nm

Compound: CCCCCCCC/C=C\CCCCCCCC(=O)OC[C@H](COP(=O)(O)OCCNCCC(=O)OCCC(C)CCC=C(C)C)OC(=O)CCCCCCC/C=C\CCCCCCCC (stereo partly drawn) [DOPE-Cit, (R)-2,3-bis(oleoyloxy)propyl (2-((3-((3,7-dimethyloct-6-en-1-yl)oxy)-3-oxopropyl)ammonio)ethyl) phosphate]
- mRNA encapsulation rate % ([1]; Table 2): 95.9%
- Number average particle size (nm) ([2]; Table 2): 65 nm
- PDI ([2]; Table 2): 0.07
- ζ-average particle size (nm) ([2]; Table 2): 85 nm
- ζ-potential (mV) ([2]; Table 2): -6.1 mV

Compound: CCCCCCCCCCCCCCCCCC(=O)OC[C@H](COP(=O)([O-])OCC[N+](C)(C)C)OC(=O)CCCCCCCCCCCCCCCCC [DSPC, 1,2-Distearoyl-sn-glycero-3-phosphocholine, reference compound]
- mRNA encapsulation rate % ([1]; Table 1): 95.7%
- Number average particle size (nm) ([2]; Table 1): 56 nm
- PDI ([2]; Table 1): 0.08
- ζ-potential (mV) ([2]; Table 1): -3.6 mV
- ζ-average particle size (nm) ([2]; Table 1, N/P 6): 75 nm

Further lines, results first:

- mRNA encapsulation rate % ([1]; Table 3): 97.2%
- Number average particle size (nm) ([2]; Table 3): 54 nm
- PDI ([2]; Table 3): 0.20
- ζ-average particle size (nm) ([2]; Table 3): 91 nm
- ζ-potential (mV) ([2]; Table 3): -10.5 mV
Compound: CCCCCCCC/C=C\CCCCCCCC(=O)OC[C@H](COP(=O)(O)OCCNCCC(=O)OC(CC)CC)OC(=O)CCCCCCC/C=C\CCCCCCCC [DOPE-C3_α2, (R)-2,3-bis(oleoyloxy)propyl (2-((3-oxo-3-(pentan-3-yloxy)propyl)ammonio)ethyl) phosphate]

- mRNA encapsulation rate % ([1]; Table 3): 97.1%
- Number average particle size (nm) ([2]; Table 3): 52 nm
- PDI ([2]; Table 3): 0.21
- ζ-average particle size (nm) ([2]; Table 3): 91 nm
- ζ-potential (mV) ([2]; Table 3): -12.0 mV
Compound: CCCCCCCC/C=C\CCCCCCCC(=O)OC[C@H](COP(=O)(O)OCCNCCC(=O)OC(CCC)CCC)OC(=O)CCCCCCC/C=C\CCCCCCCC [DOPE-C4_α3, (R)-2,3-bis(oleoyloxy)propyl (2-((3-(heptan-4-yloxy)-3-oxopropyl)ammonio)ethyl) phosphate]

- mRNA encapsulation rate % ([1]; Table 2): 95.9%
- Number average particle size (nm) ([2]; Table 2): 60 nm
- PDI ([2]; Table 2): 0.21
- ζ-average particle size (nm) ([2]; Table 2): 94 nm
- ζ-potential (mV) ([2]; Table 2): -6.4 mV
Compound: CCCCCCCC/C=C\CCCCCCCC(=O)OC[C@H](COP(=O)(O)OCCNCCC(=O)OCC(C)CCC)OC(=O)CCCCCCC/C=C\CCCCCCCC (stereo partly drawn) [DOPE-C5_β1, (R)-2,3-bis(oleoyloxy)propyl (2-((3-((2-methylpentyl)oxy)-3-oxopropyl)ammonio)ethyl) phosphate]
